Experimental data taken from PubChem BioAssay (NCI).
Values joined by “and” are separate entries in the source; they are usually repeats but may differ in a detail not shown here. Equal entries are not always repeated.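 48-hour exposure; five concentrations; linearly interpolated endpoints. At the GI50, growth is halved. TGI marks complete inhibition of growth.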

Key:
Assay in all cases: NCI anticancer screen, dose series, 48 h
[1] = test system: SNB-19 CNS
[2] = test system: T-47D breast
[3] = test system: SW-620 colon
[4] = test system: MDA-MB-435
[5] = test system: UACC-62 melanoma
[6] = test system: EKVX NSCLC
[7] = test system: COLO 205 colon
[8] = test system: K-562 leukemia
[9] = test system: HT29 colon
[10] = test system: HCC-2998 colon

SMILES | TGI [1] | TGI [2] | TGI [3] | TGI [4] | TGI [5] | TGI [6] | TGI [7] | TGI [8] | TGI [9] | TGI [10] | GI50 [1] | GI50 [3] | GI50 [5] | GI50 [6] | GI50 [7] | GI50 [8] | GI50 [9] | GI50 [2] | GI50 [4] | GI50 [10]
CCOC(=O)c1c(SC(=O)c2ccc(Cl)cc2)n(-c2ccccc2)c(=S)n(-c2ccccc2)c1=O | > 100 µM | > 100 µM | > 100 µM | > 100 µM | > 100 µM | > 100 µM | > 100 µM | > 100 µM | > 100 µM | > 100 µM | – | – | – | – | – | – | – | – | – | –
C[C@@H]([C@H]1CC[C@@]2(C)[C@@H]3CC[C@@H]4C(=CC3=CC[C@]12C)CC[C@H](N(C)C)C4(C)C)N(C)C | > 100 µM | > 100 µM | > 100 µM | > 100 µM | > 100 µM | > 100 µM | > 100 µM | > 100 µM | > 100 µM | > 100 µM | – | – | – | – | – | – | – | – | – | –
COC(=O)[C@@H]1C=CCN1S(=O)(=O)c1ccc(C)cc1 | > 100 µM | > 100 µM | > 100 µM | 39.2 µM | > 100 µM | > 100 µM | > 100 µM | > 100 µM | > 100 µM | > 100 µM | – | – | – | – | – | – | – | – | – | –
Cc1c2oc(=O)c(C#N)cc2c2ccccn12 | > 100 µM | > 100 µM | > 100 µM | > 100 µM | > 100 µM | > 100 µM | > 100 µM | > 100 µM | > 100 µM | > 100 µM | – | – | – | – | – | – | – | – | – | –
CNCC(SC)c1ccc(O)c(O)c1 (configuration not stated) | > 100 µM | 67 µM | 46.9 µM | > 100 µM | > 100 µM | 37.1 µM | 32.9 µM | 59 µM | 99.5 µM | 31.2 µM | – | – | – | – | – | – | – | – | – | –
C#CCn1c(I)cc2c(c1=O)COC(=O)[C@]2(O)CC | > 100 µM | > 100 µM | > 100 µM | > 100 µM | > 100 µM | > 100 µM | > 100 µM | > 100 µM | > 100 µM | > 100 µM | – | – | – | – | – | – | – | – | – | –
COC1(C)CCC(OS(C)(=O)=O)CO1 (configuration not stated) | > 100 µM | > 100 µM | > 100 µM | > 100 µM | > 100 µM | > 100 µM | > 100 µM | > 100 µM | > 100 µM | > 100 µM | – | – | – | – | – | – | – | – | – | –
O=S1(=O)N=C(SCc2c[nH]c3ccccc23)N(c2ccccc2)c2ccncc21 | > 100 µM | > 100 µM | > 100 µM | > 100 µM | > 100 µM | > 100 µM | > 100 µM | > 100 µM | > 100 µM | > 100 µM | – | – | – | – | – | – | – | – | – | –
COC(=O)c1ccc(C)cc1C1CN=NC12Cc1cccc(C)c1C2=O (configuration not stated) | > 100 µM | 85.8 µM | > 100 µM | 37.9 µM | 53.1 µM | > 100 µM | > 100 µM | 68.4 µM | > 100 µM | > 100 µM | – | – | – | – | – | – | – | – | – | –
COC(=O)CCCc1nc2ccccc2nc1N=Nc1ccccc1 | > 100 µM | > 100 µM | > 100 µM | > 100 µM | > 100 µM | > 100 µM | 31.2 µM | 58.2 µM | > 100 µM | > 100 µM | – | – | – | – | – | – | – | – | – | –
CCN(CC)CC[n+]1ccc2c(C)c3[nH]c4ccccc4c3c(C)c2c1 | 1.41 µM and 1.48 µM and 1.33 µM | 1.19 µM | 5.65 µM and 13.2 µM and 6.96 µM | 2.14 µM | 1.65 µM and 2.56 µM and 3.75 µM | 8.97 µM and 16.4 µM and 4.14 µM | 0.525 µM and 0.878 µM and 1.55 µM | 5.43 µM and 3.49 µM and 2.19 µM | 3.82 µM and 4.45 µM and 4.46 µM | 1.52 µM and 1.43 µM and 1.97 µM | 0.251 µM | 0.654 µM | 0.491 µM and 0.827 µM and 1.27 µM | 1.48 µM | 0.131 µM and 0.297 µM and 0.412 µM | 0.1 µM | 0.416 µM | – | – | –
CCOC(=O)c1cnc2n(c1=O)[C@H]1CCCC[C@@H]1N2 | > 100 µM | > 100 µM | > 100 µM | > 100 µM | > 100 µM | > 100 µM | > 100 µM | > 100 µM | > 100 µM | > 100 µM | – | – | – | – | – | – | – | – | – | –
Cc1cc2ccccc2n2c1nc1ccc(O)cc12 | > 10 µM | > 10 µM | > 10 µM | > 10 µM | > 10 µM | > 10 µM | > 10 µM | > 10 µM | > 10 µM | > 10 µM | – | – | – | – | – | – | – | – | – | –
COC1OC(C)/C(=N/O)C2OC(C)(C)OC12 (configuration not stated) | > 100 µM | > 100 µM | > 100 µM | > 100 µM | > 100 µM | > 100 µM | > 100 µM | > 100 µM | > 100 µM | > 100 µM | – | – | – | – | – | – | – | – | – | –
Cc1oc(N)c(S(=O)(=O)/C(C#N)=C/c2ccccc2[N+](=O)[O-])c1C | 77.4 µM | 66.8 µM | 63.1 µM | > 100 µM | 46.9 µM | > 100 µM | 40.3 µM | 60.4 µM | 35.1 µM | > 100 µM | – | – | – | – | – | – | – | – | – | –
O=[N+]([O-])/C(Cl)=C(\NCCO)C(Cl)=C(Cl)Cl | > 100 µM | 99.8 µM | 77.4 µM | > 100 µM | > 100 µM | > 100 µM | 79.3 µM | 39.7 µM | > 100 µM | > 100 µM | – | – | – | – | – | – | – | – | – | –
O=C(NC1=C(Cl)C(=O)c2ccccc2C1=O)C(=O)c1c(O)c2ccccc2oc1=O | 16 µM | 23.5 µM | > 40.9 µM | 2.97 µM | 4.58 µM | 22.4 µM | 17.9 µM | > 100 µM | 12.8 µM | 20.4 µM | – | – | – | – | – | – | – | – | – | –
C[C@@H]1C[C@@H]2OC(=O)[C@]3(C)[C@H]2[C@@H](OC3(C)O)[C@]2(C)C(=O)C=C[C@@H]12 (some centres not stated) | > 100 µM | 44.5 µM | 51.9 µM | 66.9 µM | 31.6 µM | 49.2 µM | 32 µM | 2.69 µM | 35.1 µM | 35.1 µM | – | – | – | – | – | – | – | – | – | –
O=C(CCC(NC(=O)OCc1ccccc1)C(=O)OCc1ccccc1)Nc1cccc(OCc2ccccc2)c1 (configuration not stated) | > 100 µM | > 100 µM | > 100 µM | 43.1 µM | > 100 µM | > 100 µM | 31.9 µM | 52.2 µM | 70.9 µM | > 100 µM | – | – | – | – | – | – | – | – | – | –
O=C(NCc1cn(Cc2cccc(Oc3ccccc3)c2)nn1)c1cccnc1NCc1ccc(Cl)cc1 | > 100 µM | 42.9 µM | > 100 µM | 7.37 µM | 6.92 µM | > 100 µM | 4.04 µM | > 100 µM | 7.56 µM | 28.1 µM | 3.91 µM | 4.04 µM | 2.08 µM | 3.65 µM | 2.18 µM | 3.24 µM | 2.96 µM | 3.2 µM | 2.33 µM | 4.17 µM
